From patent US20120178742A1, “METABOTROPIC GLUTAMATE RECEPTOR MODULATORS” (MERZ PHARMA GmbH & CO. KGaA, priority 2009, published 2012)
pEC50, pIC50: −log10 of the molar value.

Key:
[1] = target: T1, human metabotropic glutamate receptor mGluR5 (Homo sapiens, UniProt P41594); test: Cytosolic calcium studies with stably transfected cells (CHO-K1); format: cell-based
T1 construct: expressed in transfected cells; host or cells: CHO-K1
Description: Functional Assay of mGluR5 Receptors Cytosolic Calcium Studies with Stably Transfected Cells
Chinese hamster ovary cells (CHO-K1 cells), stably transfected for inducible expression of a human metabotropic glutamate receptor mGluR5, are seeded into black clear bottom 96 well plates at a density of 35.000 cells per well. The standard growth medium used (Dulbecco's modified Eagle Medium, DMEM plus L-proline) contains the appropriate inducer isopropyl-β-D-thiogalactopyranosid (IPTG) to achieve optimal receptor expression. One day after seeding the growth medium is exchanged for reconstituted Ca-Kit (Molecular Devices, USA) and incubated for one hour. Ca-Kit is reconstituted in an assay buffer containing 20 mM HEPES pH 7.4, glutamic-pyruvate transaminase, pyridoxal phosphate and sodium pyruvate in Hank's balanced salt solution (HBBS). Agonistic compounds to the receptor elicit increases in cytosolic calcium which can be measured as increases in fluorescence signals by use of a fluorescence imaging plate reader (Molecular Devices). […] Similarly, for the characterization of positive allosteric modulators, a dilution series of the test compound is added online to 384 well plates containing the described dye loaded cells and after a preincubation time of 5 minutes stimulated by a basal cell concentration of the agonist L-glutamate giving about 20% of the maximal signal.
(§1) The fluorescence signal increase after addition of agonist reflects the increase of cytosolic calcium. Inconsistencies in the amount of cells per well are normalised by using the spatial uniformity correction of the FLIPR operating software Screenworks. The mean of replicated temporal data (n=3-5) is calculated and used for graphical representation. For the evaluation of the pharmacology, the calcium changes in response to different concentrations of agonist or antagonist are determined using a maximum minus minimum (MaxMin) calculation.
(§2) All responses (RFU-values) are determined as percentage of control (=maximum response). EC50 and IC50 are calculated according the logistic equation using Prism 4.0 (GraphPad Software, USA).

mGluR5 receptors = target: T2, mGluR5 receptors (Rattus norvegicus, UniProt P31424); test: Cytosolic calcium studies with cultured rat astrocytes; format: cell-based
T2 construct: Primary astrocyte cultures are prepared from cortices of newborn rats; endogenous in cells; host or cells: primary rat cortical astrocytes (Sprague-Dawley pups)
T2 sequence (P31424 21-1203): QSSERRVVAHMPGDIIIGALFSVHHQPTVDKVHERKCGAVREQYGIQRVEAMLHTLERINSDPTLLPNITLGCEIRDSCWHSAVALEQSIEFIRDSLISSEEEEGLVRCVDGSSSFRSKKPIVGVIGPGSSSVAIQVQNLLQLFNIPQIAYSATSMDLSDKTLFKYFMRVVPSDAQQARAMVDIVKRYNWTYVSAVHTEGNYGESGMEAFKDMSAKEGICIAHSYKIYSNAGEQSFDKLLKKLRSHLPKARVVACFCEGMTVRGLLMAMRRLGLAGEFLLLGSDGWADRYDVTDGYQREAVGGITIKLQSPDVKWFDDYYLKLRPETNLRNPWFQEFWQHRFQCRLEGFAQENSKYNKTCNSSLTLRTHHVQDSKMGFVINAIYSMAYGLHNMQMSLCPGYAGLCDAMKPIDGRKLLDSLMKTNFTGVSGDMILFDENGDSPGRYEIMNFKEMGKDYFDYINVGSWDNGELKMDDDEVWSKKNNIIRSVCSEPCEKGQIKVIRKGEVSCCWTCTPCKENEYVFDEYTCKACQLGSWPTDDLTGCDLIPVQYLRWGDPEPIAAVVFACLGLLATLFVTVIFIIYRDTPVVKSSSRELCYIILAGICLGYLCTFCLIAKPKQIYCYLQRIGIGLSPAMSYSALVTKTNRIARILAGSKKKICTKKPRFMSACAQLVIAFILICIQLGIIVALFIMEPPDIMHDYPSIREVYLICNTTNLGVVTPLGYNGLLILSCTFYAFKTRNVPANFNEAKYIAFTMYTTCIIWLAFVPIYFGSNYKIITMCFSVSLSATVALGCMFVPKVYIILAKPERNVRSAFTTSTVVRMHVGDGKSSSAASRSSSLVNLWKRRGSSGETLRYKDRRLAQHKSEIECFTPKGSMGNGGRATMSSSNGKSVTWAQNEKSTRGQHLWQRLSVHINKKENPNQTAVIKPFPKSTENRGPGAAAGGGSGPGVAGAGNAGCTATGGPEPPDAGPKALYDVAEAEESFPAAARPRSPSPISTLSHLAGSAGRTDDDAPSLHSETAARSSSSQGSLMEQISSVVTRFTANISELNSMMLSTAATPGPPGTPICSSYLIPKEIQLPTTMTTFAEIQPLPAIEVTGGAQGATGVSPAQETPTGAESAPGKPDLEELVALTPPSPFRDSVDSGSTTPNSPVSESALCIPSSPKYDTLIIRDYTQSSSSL
Description: Primary astrocyte cultures are prepared from cortices of newborn rats as described by Booher and Sensenbrenner (1972, Neurobiology 2(3):97-105). Briefly, Sprague-Dawley rat pups (2-4 d old) are decapitated and neocortices are dissected, disintegrated with a nylon filter (pore size 80 μm) and carefully triturated. The cell suspension is plated on poly-D-lysine pre-coated flasks (Costar, Netherlands) and cultivated in Dulbecco's Modified Eagle's Medium (DMEM, Invitrogen, Germany) supplemented with 10% foetal calf serum (FCS, Sigma, Germany), 4 mM glutamine and […] gentamycin (both Biochrom, Germany) at 37° C. in a humidified atmosphere of 5% CO2/95% air for 7 days with exchanging the medium at day 2 and 6.
After 7 days in vitro (DIV), cells are shaken overnight at 250 rpm to remove oligodendrocytes and microglia. The next day, astrocytes are rinsed twice with CMF-PBS (calcium- and magnesium-free phosphate buffered saline, Biochrom, Germany), trypsinized and subplated on poly-D-lysine pre-coated 96-well plates (Greiner, Germany) at a density of 40,000 cells/well. 24 h after establishing the secondary culture the astrocytes are rinsed with PBS″ (phosphate buffered saline, Biochrom, Germany) and fed with astrocyte-defined medium (ADM) consisting of DMEM containing 1× G5-supplement (Invitrogen, Germany), 0.5 μg/ml heparan sulfate, and 1.5 μg/ml fibronectin (both Sigma, Germany) (Miller et al., (1993) Brain Res. 618(1):175-8). 3 days later the medium is exchanged and the cells incubated for another 2-3 days, so that at the time of experiments astrocytes are 14-15 DIV.
The increase of cytosolic calcium after stimulation with the mGluR5 agonist L-quisqualate is measured using a fluorometric imaging plate reader (FLIPR) and the Ca-Kit (both Molecular Devices). Prior to addition of agonist or antagonist the medium is aspirated and cells are loaded for 2 h at RT with 150 μl of loading buffer consisting of Ca-sensitive dye reconstituted in sodium chloride (123 mM), potassium chloride (5.4 mM), magnesium chloride (0.8 mM), calcium chloride (1.8 mM), D-glucose (15 mM), and HEPES (20 mM), pH 7.3. Subsequently, plates are transferred to FLIPR to detect calcium increase with the addition of L-quisqualate (100 nM) measured as relative fluorescence units (RFU). If antagonists are tested, these compounds are pre-incubated for 10 minutes at RT before addition of the respective agonist.
Thereafter, concentration-response curves for the positive modulator are performed in the presence of a fixed concentration of quisqualate showing the biggest window for potentiation (normally 10-30 nM).
as §1, §2

monoamine oxidase MAO-B = target: T3, monoamine oxidase MAO-B (Homo sapiens, UniProt P27338); test: Inhibition of monoamine oxidase MAO-B; format: biochemical; conditions: recombinant human enzyme expressed in insect Hi5 cells, 50 uM kynuramine
T3 construct: host or cells: insect Hi5 cells
T3 sequence (P27338 1-520): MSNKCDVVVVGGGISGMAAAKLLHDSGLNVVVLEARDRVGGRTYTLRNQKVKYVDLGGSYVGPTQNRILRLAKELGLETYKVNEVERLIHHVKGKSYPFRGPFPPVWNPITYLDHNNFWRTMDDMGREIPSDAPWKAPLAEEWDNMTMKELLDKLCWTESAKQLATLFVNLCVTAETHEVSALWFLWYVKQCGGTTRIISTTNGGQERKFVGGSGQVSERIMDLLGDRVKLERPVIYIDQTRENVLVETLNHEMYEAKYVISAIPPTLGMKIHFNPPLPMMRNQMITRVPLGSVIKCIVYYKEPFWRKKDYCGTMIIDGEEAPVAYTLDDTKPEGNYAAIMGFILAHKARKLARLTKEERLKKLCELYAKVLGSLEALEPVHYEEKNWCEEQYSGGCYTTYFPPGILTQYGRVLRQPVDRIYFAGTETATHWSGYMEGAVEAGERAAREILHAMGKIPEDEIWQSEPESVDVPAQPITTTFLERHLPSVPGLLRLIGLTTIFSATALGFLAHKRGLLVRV
Description: The inhibition of the enzyme monoamine oxidase MAO-B is tested with an enzyme from recombinant source, namely of the human enzyme expressed in insect Hi5 cells. Following a pre-incubation of the test compounds with the enzyme for 15 minutes at 37° C. in the incubation buffer (100 mM potassium phosphate, pH 7.4), the enzymatic reaction with 50 uM kynuramine is carried out for 60 minutes. The reaction product 4-hydroxyquinoline is quantified by spectrofluorometry. The compound vehicle used for this assay is 1% DMSO.

T1 sequence (P41594 21-1212): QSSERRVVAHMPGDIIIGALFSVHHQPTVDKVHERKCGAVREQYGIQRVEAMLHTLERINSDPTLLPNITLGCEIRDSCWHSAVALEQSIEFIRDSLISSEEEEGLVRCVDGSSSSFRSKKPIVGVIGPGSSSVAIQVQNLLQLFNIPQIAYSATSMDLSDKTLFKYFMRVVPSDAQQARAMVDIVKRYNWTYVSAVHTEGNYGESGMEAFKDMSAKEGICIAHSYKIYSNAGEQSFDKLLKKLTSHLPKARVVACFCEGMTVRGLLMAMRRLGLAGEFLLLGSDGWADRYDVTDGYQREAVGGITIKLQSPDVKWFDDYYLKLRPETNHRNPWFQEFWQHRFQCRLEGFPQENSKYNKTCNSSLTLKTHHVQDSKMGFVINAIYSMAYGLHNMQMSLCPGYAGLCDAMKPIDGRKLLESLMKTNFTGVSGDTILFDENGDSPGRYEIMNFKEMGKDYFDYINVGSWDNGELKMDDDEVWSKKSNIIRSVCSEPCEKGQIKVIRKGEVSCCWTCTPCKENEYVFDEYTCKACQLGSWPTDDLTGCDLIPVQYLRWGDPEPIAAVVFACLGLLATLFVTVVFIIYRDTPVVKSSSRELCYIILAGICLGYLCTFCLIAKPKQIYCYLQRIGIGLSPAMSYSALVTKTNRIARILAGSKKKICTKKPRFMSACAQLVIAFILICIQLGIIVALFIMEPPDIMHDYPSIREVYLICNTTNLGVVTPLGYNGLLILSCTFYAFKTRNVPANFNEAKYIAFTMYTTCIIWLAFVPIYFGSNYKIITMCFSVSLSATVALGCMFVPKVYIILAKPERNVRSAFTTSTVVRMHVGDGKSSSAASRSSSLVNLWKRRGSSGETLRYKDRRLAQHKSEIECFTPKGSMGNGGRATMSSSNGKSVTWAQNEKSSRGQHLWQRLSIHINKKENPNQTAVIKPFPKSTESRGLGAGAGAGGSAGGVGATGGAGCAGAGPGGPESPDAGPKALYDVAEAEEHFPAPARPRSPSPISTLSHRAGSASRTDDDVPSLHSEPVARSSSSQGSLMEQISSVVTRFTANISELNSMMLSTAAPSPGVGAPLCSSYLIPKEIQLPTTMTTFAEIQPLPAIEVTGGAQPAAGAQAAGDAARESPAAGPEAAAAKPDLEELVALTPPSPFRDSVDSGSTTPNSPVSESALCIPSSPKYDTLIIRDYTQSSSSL

SMILES | pEC50 [1] | pEC50 (mGluR5 receptors) | pIC50 (monoamine oxidase MAO-B)
Fc1cc(F)cc(C#Cc2cnc3ncsc3c2)c1 [Example 80, 6-((3,5-Difluorophenyl)ethynyl)thiazolo[4,5-b]pyridine] | 6.18 | 6.36 | 
C(#Cc1cnc2cccnc2c1)c1ccncc1 [Example 100, 3-(Pyridin-4-ylethynyl)-1,5-naphthyridine] | 6.64 | 6.51 | 
O=C(c1nc2ncc(C#Cc3ccccc3)cc2o1)N1CCCCC1 [Example 43, (6-Phenylethynyl-oxazolo[4,5-b]pyridin-2-yl)-piperidin-1-yl-methanone] | 6.82 | 7.22 | 
Cc1cccc(C#Cc2cnc3cccnc3c2)c1 [Example 95, 3-(m-Tolylethynyl)-[1,5]naphthyridine] | 8.26 | 8.64 | 
Fc1ccc(C#Cc2cnc3cccnc3c2)cc1 [Example 69, 3-(4-Fluoro-phenylethynyl)-[1,5]naphthyridine] | 8.01 | 7.92 | 
Fc1ccccc1C#Cc1cnc2nccnc2c1 [Example 61, 7-(2-Fluoro-phenylethynyl)-pyrido[2,3-b]pyrazine] | 6.52 | 6.72 | 7.43
Cc1ccc(C#Cc2cnc3cccnc3c2)cc1 [Example 93, 3-(p-Tolylethynyl)-[1,5]naphthyridine] | 7.44 | 7.11 | 
Fc1ccc(C#Cc2cnc3ncsc3c2)cc1 [Example 46, 6-(4-Fluoro-phenylethynyl)-thiazolo[4,5-b]pyridine] | 7.24 | 7.04 | 6.27
Cc1ccccc1C#Cc1cnc2ncsc2c1 [Example 75, 6-(o-Tolylethynyl)thiazolo[4,5-b]pyridine] | 5.64 | 6.28 | 
Cc1ccccc1C#Cc1cnc2cccnc2c1 [Example 94, 3-(o-Tolylethynyl)-[1,5]naphthyridine] | 6.39 | 6.68 | 
Fc1cccc(C#Cc2cnc3ncsc3c2)c1 [Example 44, 6-(3-Fluoro-phenylethynyl)-thiazolo[4,5-b]pyridine] | 7.64 | 7.43 | 
Fc1cccc(C#Cc2cnc3ncnn3c2)c1 [Example 47, 6-(3-Fluoro-phenylethynyl)-[1,2,4]triazolo[1,5-a]pyrimidine] | 5.89 | 5.82 | 
C(#Cc1cnc2ccnn2c1)C1=CCSCC1 [Example 10, 6-(3,6-Dihydro-2H-thiopyran-4-ylethynyl)-pyrazolo[1,5-a]pyrimidine] | 6.96 | 7.30 | 
Cc1cccc(C#Cc2cnc3ncsc3c2)c1 [Example 73, 6-(m-Tolylethynyl)thiazolo[4,5-b]pyridine] | 7.70 | 7.85 | 
O=C(c1cc2ccc(C#Cc3ccccc3)cn2n1)N1CCCCC1 [Example 32, (6-Phenylethynyl-pyrazolo[1,5-a]pyridin-2-yl)-piperidin-1-yl-methanone] | 6.60 | 6.32 | 
Fc1ccc(C#Cc2ccc3ncnn3c2)cc1 [Example 55, 6-(4-Fluoro-phenylethynyl)-[1,2,4]triazolo[1,5-a]pyridine] | 6.19 | 6.40 | 
Fc1ccc(C#Cc2cnc3nccnc3c2)cc1 [Example 62, 7-(4-Fluoro-phenylethynyl)-pyrido[2,3-b]pyrazine] | 6.26 | 6.14 | 
Fc1ccc(C#Cc2cnc3ncsc3c2)c(F)c1 [Example 79, 6-((2,4-Difluorophenyl)ethynyl)thiazolo[4,5-b]pyridine] | 6.51 | 6.66 | 
O=C(c1nc2ncc(C#CC3=CCCCC3)cc2o1)N1CCCCC1 [Example 72, (6-Cyclohex-1-enylethynyl-oxazolo[4,5-b]pyridin-2-yl)-piperidin-1-yl-methanone] | 6.48 | 6.49 | 
Fc1ccccc1C#Cc1ccc2ncnn2c1 [Example 54, 6-(2-Fluoro-phenylethynyl)-[1,2,4]triazolo[1,5-a]pyridine] | 6.13 | 6.33 | 
Fc1cccc(C#Cc2cnc3ccnn3c2)c1 [Example 3, 6-(3-Fluoro-phenylethynyl)-pyrazolo[1,5-a]pyrimidine] | 7.68 | 7.12 | 
Fc1ccccc1C#Cc1cnc2cccnc2c1 [Example 68, 3-(2-Fluoro-phenylethynyl)-[1,5]naphthyridine] | 7.72 | 7.62 | 
C(#Cc1cnc2nc(N3CCCCC3)sc2c1)c1ccccc1 [Example 81, 6-Phenylethynyl-2-piperidin-1-yl-thiazolo[4,5-b]pyridine] | 7.04 |  | 6.28
Fc1cccc(C#Cc2cnc3cccnc3c2)c1 [Example 67, 3-(3-Fluoro-phenylethynyl)-[1,5]naphthyridine] | 8.17 | 8.07 | 
C(#Cc1cnc2nccnc2c1)c1ccccc1 [Example 39, 7-Phenylethynyl-pyrido[2,3-b]pyrazine] | 7.46 | 7.00 | 
Fc1cccc(C#Cc2cnc3nccnc3c2)c1 [Example 60, 7-(3-Fluoro-phenylethynyl)-pyrido[2,3-b]pyrazine] | 7.00 | 7.27 | 7.05
C(#Cc1ccc2ncnn2c1)c1ccccc1 [Example 37, 6-Phenylethynyl-[1,2,4]triazolo[1,5-a]pyridine] | 6.96 | 6.96 | 
Fc1ccc(C#Cc2cnc3ccnn3c2)cc1 [Example 4, 6-(4-Fluoro-phenylethynyl)-pyrazolo[1,5-a]pyrimidine] | 6.92 | 7.20 | 
C(#Cc1cnc2ccnn2c1)C1=CCCCC1 [Example 8, 6-Cyclohex-1-enylethynyl-pyrazolo[1,5-a]pyrimidine] | 7.64 | 7.15 | 
C(#Cc1cnc2nccnc2c1)C1=CCCCC1 [Example 40, 7-Cyclohex-1-enylethynyl-pyrido[2,3-b]pyrazine] | 6.92 | 6.19 | 
